Test results as given in PMC12851007 (Angewandte Chemie (International Ed. in English), 2025).
Where a SMILES comes first, the peptide text is derived from it.

Legend:
[1] = Dual-channel assay, CX4/LCG channel, POPC/POPS vesicles; format: in vitro ADME; settings: 12.5 µM POPC/POPS(9:1)⸧CX4/LCG-LUVs and 12.5 µM POPC/POPS(9:1)⸧CF-LUVs in 10 mM Hepes, 175 mM glucose, pH 7.5; error = SD of fit, n = 1
Text: Ultimately, we have also tested the new conditions with vesicles containing the anionic lipid 1‐palmitoyl‐2‐oleoyl‐phosphatidylserine (POPS) with TP10, Pep‐1, and the LRLLRW peptide (Figures S41–S43 and Table S11). The results confirmed that the absolute activity as well as the difference between the CF dye efflux assay and the tandem membrane assay was nearly unaffected by the presence of 10% POPS with the only exception that the membrane‐translocating ability of TP10 was enhanced.
Assay protocol. An appropriate volume of the liposome stock solutions was diluted to 2 mL with outside buffer in a 10 ×10 mm quartz glass cuvette to afford a phospholipid concentration of 25 µM. The cuvette was placed into a thermostatted fluorimeter sample holder and gentl y stirred at 300 rpm at (25.0± 0.1) °C. Subsequentl y, the time-dependent change in fluorescence intensity (C F: λ exc = 492 nm, λ em = 517 nm) was recorded during addition of 20 µL peptide stock solution of var ying concentrations at 60 s and 20µ L of a calibration cocktail (1. 6% […]
(§1) Time-dep endent fluores cence intensit y traces, I (t), were subsequentl y normalized to fractional intensities, If(t), using equation (1) and the concentration- dependent fractional intensities just before the addition of th e calibration co cktail, I f, w ere then normaliz ed to fr actional membran e activities, Y, using equation (2). The fractional membrane activities, Y, were subsequently plotted against the peptide concentration, c, and anal ysed using the Hill equation (3) to obtain the effective molar concentration, EC 50, and the Hill coefficient, n. For peptides with too low activity to determine Y max ex perimentall y, Y max was fixed at 1.0 during fitting. […]
(§2) Dual-Channel Measurements
(§3) Vesicles w ere prep ared a s described abov e (se e en try (4) in Table S2 and entry (3) in Table S3) and eluted with freshl y prepared 10 mM Hepes, 175mM glucos e, pH 7.5 i n the size exclusion chromatograph y. For the measurements, an approp riate volume o f the liposome stock solutions was diluted to 2m L in a 10× 10 mm PS cuvette wi th 10 mM Hep es bu ffer and 175 mM glucos e at pH 7.5 to afford 12.5µM POPC ⊃CX4/LCG-LUVs and 12.5 µM POPC⊃CF-LUVs (25 µM POPC total). The cuvette was placed into a thermostatted fluorimeter sample holder at 25.0 °C and gentl y stirred at 300 rpm. The fluorescence intensity w as simultaneous l y r eco rded in the CF chann el ( λ exc = 525 nm, λ em = 545 nm) and in the LCG channel ( λ exc = 369 nm, λ em = 475 nm) with an ex citation slit width of 5 nm and an emission slit width of 5 n m during addition of 20 µL peptide stock solution of varying concentrations at 60 s and 20 µL of a calibration

[2] = Dual-channel assay, CF channel, POPC vesicles; format: biochemical; settings: 12.5 µM POPC⸧CX4/LCG-LUVs and 12.5 µM POPC⸧CF-LUVs in 10 mM Hepes, 175 mM glucose, pH 7.5, 25 °C; λexc 525/λem 545 nm; error = SD of fit, n = 1
Text: (§4) With the established identical extravesicular conditions in both assays, we further envisaged a simultaneous measurement of both assays within the same solution to enhance the comparability of the measurements. This became possible after optimization of the excitation and emission wavelengths. […] A further optimization was required, because the dye concentrations in the CF assay and the CX4/LCG assay are largely different.^[ [51], [52] ^] Consequently, simultaneous monitoring requires the detection of a low amount of LCG in the presence of a high concentration of the much more brightly fluorescent CF, which challenges the dynamic range of a typical fluorescence spectrometer in a dual‐channel measurement. To reduce the fluorescence read‐out of CF, the excitation wavelength was shifted from the absorption maximum at ca. 490 nm to 525 nm, where CF has a much lower absorbance, and the emission in the CF channel was shifted from its maximum at ca. 515 nm to 545 nm to further reduce the fluorescence of CF. To maintain a high LCG fluorescence, excitation was performed at the absorption maximum at 369 nm. Since CF has a residual absorbance at this excitation wavelength, emission in the LCG channel was monitored at 475 nm instead of 502 nm to eliminate spill‐over of CF fluorescence into the LCG channel. […]
as §1, §2
Vesicles w ere prep ared a s described abov e (se e en try (4) in Table S2 and entry (3) in Table S3) and eluted with freshl y prepared 10 mM Hepes, 175mM glucos e, pH 7.5 i n the size exclusion chromatograph y. […] The fluorescence intensity w as simultaneous l y r eco rded in the CF chann el ( λ exc = 525 nm, λ em = 545 nm) and in the LCG channel ( λ exc = 369 nm, λ em = 475 nm) with an ex citation slit width of 5 nm and an emission slit width of 5 n m during addition of 20 µL peptide stock solution of varying concentrations at 60 s and 20 µL of a calibration

[3] = Dual-channel assay, CX4/LCG channel, POPC vesicles; format: in vitro ADME; settings: 175 mM glucose; for EC50: 12.5 µM POPC⸧CX4/LCG-LUVs and 12.5 µM POPC⸧CF-LUVs in 10 mM Hepes, pH 7.5, 25 °C, λexc 369/λem 475 nm, error = SD of fit, n = 1; for membrane activity in the CX4/LCG channel compared with the CF channel: dual-channel, seven independent POPC LUV batches (n = 7), penetratin 15 µM, Pep-1 10 µM, LRLLRW 30 µM, TP10 0.15 µM, 10 mM Hepes, pH 7.5, t-test/ANOVA p < 0.001, melittin: Figure S35 and Table S9
Text: as §4, §1, §2, §3

Row | Structure (SMILES) | EC50 [1] [µM] | EC50, dual-channel assay, CX4/LCG channel, POPC/POPS [1] | EC50 [2] [µM] | EC50 [3] [µM] | membrane activity in the CX4/LCG channel compared with the CF channel [3]
1 | CC[C@H](C)[C@H](NC(=O)[C@H](CCCCN)NC(=O)[C@H](CCCCN)NC(=O)[C@H](C)NC(=O)[C@H](CC(C)C)NC(=O)[C@H](C)NC(=O)[C@H](C)NC(=O)[C@H](CC(C)C)NC(=O)[C@H](C)NC(=O)[C@H](CCCCN)NC(=O)[C@H](CC(C)C)NC(=O)[C@H](CC(N)=O)NC(=O)[C@@H](NC(=O)[C@H](CCCCN)NC(=O)CNC(=O)[C@H](CC(C)C)NC(=O)[C@H](CC(C)C)NC(=O)[C@H](Cc1ccc(O)cc1)NC(=O)CNC(=O)[C@H](C)N)[C@@H](C)CC)C(=O)N[C@@H](CC(C)C)C(=O)O [TP10] | 0.076 ± 0.01 | enhanced | 0.053 ± 0.007 | 0.78 ± 0.09 | significantly higher membrane activity with the CF dye efflux assay
2 | CC(C)C[C@H](NC(=O)[C@H](CC(C)C)NC(=O)[C@H](CCCNC(=N)N)NC(=O)[C@@H](N)CC(C)C)C(=O)N[C@@H](CCCNC(=N)N)C(=O)N[C@@H](Cc1c[nH]c2ccccc12)C(N)=O [LRLLRW] (H-LRLLRW-NH2) | 9 ± 1.6 | – | 49 ± 6 | 9 ± 0.9 | significantly higher
3 | CC[C@H](C)[C@H](NC(=O)[C@H](CCCCN)NC(=O)[C@@H](NC(=O)[C@@H](N)CCC(N)=O)[C@@H](C)CC)C(=O)N[C@@H](Cc1c[nH]c2ccccc12)C(=O)N[C@@H](Cc1ccccc1)C(=O)N[C@@H](CCC(N)=O)C(=O)N[C@@H](CC(N)=O)C(=O)N[C@@H](CCCNC(=N)N)C(=O)N[C@@H](CCCNC(=N)N)C(=O)N[C@@H](CCSC)C(=O)N[C@@H](CCCCN)C(=O)N[C@@H](Cc1c[nH]c2ccccc12)C(=O)N[C@@H](CCCCN)C(=O)N[C@@H](CCCCN)C(=O)O (H-QIKIWFQNRRMKWKK-OH) | – | – | > 1000 | 28 ± 2 | significantly higher
4 | CC(C)[C@H](NC(=O)[C@H](CCCCN)NC(=O)[C@H](CCCNC(=N)N)NC(=O)[C@H](CCCCN)NC(=O)[C@H](CCCCN)NC(=O)[C@H](CCCCN)NC(=O)[C@@H]1CCCN1C(=O)[C@H](CCC(N)=O)NC(=O)[C@H](CO)NC(=O)[C@H](Cc1c[nH]c2ccccc12)NC(=O)[C@H](CC(=O)O)NC(=O)[C@@H](NC(=O)[C@H](Cc1c[nH]c2ccccc12)NC(=O)[C@H](Cc1c[nH]c2ccccc12)NC(=O)[C@@H](NC(=O)[C@H](CC(=O)O)NC(=O)[C@H](Cc1c[nH]c2ccccc12)NC(=O)[C@H](Cc1c[nH]c2ccccc12)NC(=O)[C@@H](NC(=O)[C@H](CC(=O)O)NC(=O)[C@@H](N)CCCCN)[C@@H](C)O)[C@@H](C)O)[C@@H](C)O)C(=O)O [Pep‐1] (H-KDTWWDTWWTDWSQPKKKRKV-OH) | 5.3 ± 0.66 | – | > 1000 | 22 ± 16 | significantly higher
